According to ChEMBL document CHEMBL1136358, “Discovery and initial SAR of 2-amino-5-carboxamidothiazoles as inhibitors of the Src-family kinase p56(Lck)” (Bioorg Med Chem Lett, 2003):

Columns and labels:
[1] = biological target: T1, Tyrosine-protein kinase Lck (Homo sapiens, UniProt P06239)
Description: Inhibitory activity human Lck(hLck) kinase

[2] = biological target: T2, Proto-oncogene tyrosine-protein kinase LCK (Mus musculus, UniProt P06240); test: In vitro inhibition of murine Lck kinase.
[3] = biological target: T2, Proto-oncogene tyrosine-protein kinase LCK; test: Inhibition of mouse p56 Lck tyrosine kinase
[4] = biological target: T1, Tyrosine-protein kinase Lck; test: Inhibition of human p56 Lck tyrosine kinase
[5] = biological target: T1, Tyrosine-protein kinase Lck; test: Inhibition of human Lck(hLck) kinase
[6] = biological target: Proto-oncogene tyrosine-protein kinase Src (Homo sapiens, UniProt P12931); test: Inhibition of Src kinase
[7] = biological target: T1, Tyrosine-protein kinase Lck; test: Inhibition of Lck kinase
[8] = biological target: Fibroblast growth factor receptor (Homo sapiens, UniProt P22607+P11362+P22455+P21802); test: Inhibition of FGF receptor; type: protein assay
Focal adhesion kinase 1 = Focal adhesion kinase 1 (Homo sapiens, UniProt Q05397); test: Inhibition of FAK kinase
[9] = biological target: Tyrosine-protein kinase HCK (Homo sapiens, UniProt P08631); test: Inhibition of Hck kinase
[10] = biological target: Receptor tyrosine-protein kinase erbB-2 (Homo sapiens, UniProt P04626); test: Inhibition of HER2 kinase
[11] = biological target: T3, Tyrosine-protein kinase JAK3 (Homo sapiens, UniProt P52333); test: Inhibition of Jak3 kinase
T3 sequence (P52333 whole entry): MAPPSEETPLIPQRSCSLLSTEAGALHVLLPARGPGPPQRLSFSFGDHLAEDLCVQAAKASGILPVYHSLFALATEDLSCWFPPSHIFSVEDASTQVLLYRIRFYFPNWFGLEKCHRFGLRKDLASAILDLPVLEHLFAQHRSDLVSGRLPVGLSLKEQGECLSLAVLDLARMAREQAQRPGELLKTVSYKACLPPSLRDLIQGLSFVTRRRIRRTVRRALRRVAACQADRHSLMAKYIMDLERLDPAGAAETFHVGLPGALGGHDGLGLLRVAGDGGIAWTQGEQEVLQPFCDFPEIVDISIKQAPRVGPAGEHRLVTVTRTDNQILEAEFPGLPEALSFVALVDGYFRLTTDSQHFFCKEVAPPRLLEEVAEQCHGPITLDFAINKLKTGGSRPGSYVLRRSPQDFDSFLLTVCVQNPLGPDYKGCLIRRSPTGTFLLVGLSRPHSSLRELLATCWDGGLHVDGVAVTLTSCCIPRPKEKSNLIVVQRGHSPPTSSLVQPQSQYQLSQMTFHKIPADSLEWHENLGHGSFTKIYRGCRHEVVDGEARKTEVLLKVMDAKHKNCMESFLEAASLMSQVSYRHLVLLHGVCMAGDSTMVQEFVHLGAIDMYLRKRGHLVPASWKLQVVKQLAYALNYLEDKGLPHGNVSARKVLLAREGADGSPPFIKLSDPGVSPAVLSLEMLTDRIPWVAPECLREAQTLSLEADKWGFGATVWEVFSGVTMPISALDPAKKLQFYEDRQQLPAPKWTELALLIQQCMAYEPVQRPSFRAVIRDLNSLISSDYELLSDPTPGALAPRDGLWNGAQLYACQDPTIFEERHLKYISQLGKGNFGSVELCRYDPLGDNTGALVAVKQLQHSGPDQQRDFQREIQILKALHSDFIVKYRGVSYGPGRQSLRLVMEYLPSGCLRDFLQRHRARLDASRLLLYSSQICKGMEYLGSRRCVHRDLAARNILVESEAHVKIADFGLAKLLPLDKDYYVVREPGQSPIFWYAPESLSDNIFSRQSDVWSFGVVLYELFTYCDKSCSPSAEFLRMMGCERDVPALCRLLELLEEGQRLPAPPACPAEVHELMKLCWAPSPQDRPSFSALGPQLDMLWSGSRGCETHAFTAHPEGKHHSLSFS

[12] = biological target: Cyclin-dependent kinase 2 (Homo sapiens, UniProt P24941); test: Inhibition of CDK2 kinase
[13] = biological target: Tyrosine-protein kinase Fyn (Homo sapiens, UniProt P06241); test: Inhibition of Fyn kinase
[14] = biological target: T2, Proto-oncogene tyrosine-protein kinase LCK; test: Inhibition of mouse Lck(mLck) kinase at 50 uM (Inactive)
[15] = biological target: T1, Tyrosine-protein kinase Lck; test: Inhibition of human Lck(hLck) kinase at 50 uM (Inactive)

T2 sequence (P06240 whole entry): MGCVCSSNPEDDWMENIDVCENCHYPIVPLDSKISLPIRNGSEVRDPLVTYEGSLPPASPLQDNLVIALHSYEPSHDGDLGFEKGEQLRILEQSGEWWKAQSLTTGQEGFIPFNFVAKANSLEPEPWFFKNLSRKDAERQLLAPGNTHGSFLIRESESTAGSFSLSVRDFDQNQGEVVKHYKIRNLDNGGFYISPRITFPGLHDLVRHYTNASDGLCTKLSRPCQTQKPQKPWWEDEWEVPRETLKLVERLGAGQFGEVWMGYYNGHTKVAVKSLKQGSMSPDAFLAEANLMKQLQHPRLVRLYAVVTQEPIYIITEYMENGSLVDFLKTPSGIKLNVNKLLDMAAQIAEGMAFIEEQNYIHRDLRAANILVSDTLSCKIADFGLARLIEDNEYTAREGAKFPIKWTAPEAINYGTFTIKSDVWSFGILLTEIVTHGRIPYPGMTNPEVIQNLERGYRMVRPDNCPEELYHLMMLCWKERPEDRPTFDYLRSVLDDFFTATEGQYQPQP
T1 sequence (P06239 whole entry): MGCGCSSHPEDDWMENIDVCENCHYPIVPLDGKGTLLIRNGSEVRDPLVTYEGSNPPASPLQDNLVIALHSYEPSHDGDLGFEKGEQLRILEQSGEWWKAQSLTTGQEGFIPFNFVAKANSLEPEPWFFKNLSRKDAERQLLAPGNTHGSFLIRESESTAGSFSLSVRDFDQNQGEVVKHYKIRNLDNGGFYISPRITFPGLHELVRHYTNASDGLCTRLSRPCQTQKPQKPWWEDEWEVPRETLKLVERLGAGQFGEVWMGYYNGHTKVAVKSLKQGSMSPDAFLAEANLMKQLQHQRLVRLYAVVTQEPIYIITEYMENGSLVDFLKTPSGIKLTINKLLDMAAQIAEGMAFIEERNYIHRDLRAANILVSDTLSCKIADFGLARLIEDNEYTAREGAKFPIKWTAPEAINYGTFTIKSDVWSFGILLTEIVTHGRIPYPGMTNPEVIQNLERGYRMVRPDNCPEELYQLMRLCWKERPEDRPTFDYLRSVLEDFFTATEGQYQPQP
Tyrosine-protein kinase HCK, sequence (P08631 whole entry): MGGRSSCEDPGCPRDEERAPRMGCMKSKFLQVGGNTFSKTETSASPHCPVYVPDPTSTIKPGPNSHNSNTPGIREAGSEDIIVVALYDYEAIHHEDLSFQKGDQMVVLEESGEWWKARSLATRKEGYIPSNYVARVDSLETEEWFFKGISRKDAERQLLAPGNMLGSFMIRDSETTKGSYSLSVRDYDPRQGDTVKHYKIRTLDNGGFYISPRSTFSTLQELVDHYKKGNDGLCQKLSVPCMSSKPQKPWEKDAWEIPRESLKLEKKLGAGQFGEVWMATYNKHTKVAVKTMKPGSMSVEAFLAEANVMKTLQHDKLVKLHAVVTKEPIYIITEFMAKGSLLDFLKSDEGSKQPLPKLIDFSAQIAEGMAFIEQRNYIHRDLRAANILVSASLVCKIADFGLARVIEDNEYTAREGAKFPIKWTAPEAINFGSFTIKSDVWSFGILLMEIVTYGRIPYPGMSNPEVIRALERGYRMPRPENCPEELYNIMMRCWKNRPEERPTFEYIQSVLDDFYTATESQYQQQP
Proto-oncogene tyrosine-protein kinase Src, sequence (P12931 2-536 limits assumed): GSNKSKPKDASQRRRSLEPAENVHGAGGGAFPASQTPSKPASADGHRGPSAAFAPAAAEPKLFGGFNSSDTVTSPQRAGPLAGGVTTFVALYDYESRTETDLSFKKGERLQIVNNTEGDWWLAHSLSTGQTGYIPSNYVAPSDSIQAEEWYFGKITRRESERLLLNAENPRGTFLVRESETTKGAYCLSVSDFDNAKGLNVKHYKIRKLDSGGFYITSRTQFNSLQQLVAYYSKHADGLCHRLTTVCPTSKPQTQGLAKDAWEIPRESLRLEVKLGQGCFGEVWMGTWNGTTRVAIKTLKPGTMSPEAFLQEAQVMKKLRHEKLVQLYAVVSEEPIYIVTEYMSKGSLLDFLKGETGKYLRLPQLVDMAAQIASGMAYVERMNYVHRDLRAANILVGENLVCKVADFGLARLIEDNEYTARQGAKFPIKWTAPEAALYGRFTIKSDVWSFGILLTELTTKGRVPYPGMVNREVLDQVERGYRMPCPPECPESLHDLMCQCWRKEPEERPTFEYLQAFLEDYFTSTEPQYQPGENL
Receptor tyrosine-protein kinase erbB-2, sequence (P04626 whole entry): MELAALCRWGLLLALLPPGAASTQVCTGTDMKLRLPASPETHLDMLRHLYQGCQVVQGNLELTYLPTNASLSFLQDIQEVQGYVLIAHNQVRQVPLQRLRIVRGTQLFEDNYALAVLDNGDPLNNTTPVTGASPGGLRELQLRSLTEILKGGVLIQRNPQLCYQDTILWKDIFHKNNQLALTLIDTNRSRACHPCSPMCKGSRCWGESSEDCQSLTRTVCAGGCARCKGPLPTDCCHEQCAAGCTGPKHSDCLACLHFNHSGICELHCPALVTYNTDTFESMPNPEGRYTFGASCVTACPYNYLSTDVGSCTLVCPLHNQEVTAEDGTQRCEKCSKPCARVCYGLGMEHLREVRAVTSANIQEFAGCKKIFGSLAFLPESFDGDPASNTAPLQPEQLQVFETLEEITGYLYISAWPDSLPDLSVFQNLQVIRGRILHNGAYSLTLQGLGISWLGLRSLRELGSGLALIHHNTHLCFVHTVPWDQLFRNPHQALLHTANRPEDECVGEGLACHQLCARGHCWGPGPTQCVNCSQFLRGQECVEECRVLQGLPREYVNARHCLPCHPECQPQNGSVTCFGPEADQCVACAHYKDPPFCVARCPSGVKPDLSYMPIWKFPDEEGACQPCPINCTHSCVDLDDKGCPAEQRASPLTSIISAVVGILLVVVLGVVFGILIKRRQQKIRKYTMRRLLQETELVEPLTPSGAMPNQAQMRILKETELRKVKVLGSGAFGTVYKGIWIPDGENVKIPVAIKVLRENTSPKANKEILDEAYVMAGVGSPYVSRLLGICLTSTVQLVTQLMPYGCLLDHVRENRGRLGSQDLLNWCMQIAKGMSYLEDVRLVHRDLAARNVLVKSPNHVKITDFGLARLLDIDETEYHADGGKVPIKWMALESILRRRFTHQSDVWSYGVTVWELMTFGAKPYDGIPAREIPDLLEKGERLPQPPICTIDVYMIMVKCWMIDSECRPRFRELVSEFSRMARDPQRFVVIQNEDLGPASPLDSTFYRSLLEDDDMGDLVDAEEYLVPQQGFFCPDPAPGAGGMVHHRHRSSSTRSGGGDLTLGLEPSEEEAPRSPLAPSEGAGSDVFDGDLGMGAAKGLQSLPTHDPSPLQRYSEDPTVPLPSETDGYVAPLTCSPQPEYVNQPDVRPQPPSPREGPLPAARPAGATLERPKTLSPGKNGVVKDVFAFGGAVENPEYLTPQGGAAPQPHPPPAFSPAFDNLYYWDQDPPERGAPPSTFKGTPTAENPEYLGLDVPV
Tyrosine-protein kinase Fyn, sequence (P06241 whole entry): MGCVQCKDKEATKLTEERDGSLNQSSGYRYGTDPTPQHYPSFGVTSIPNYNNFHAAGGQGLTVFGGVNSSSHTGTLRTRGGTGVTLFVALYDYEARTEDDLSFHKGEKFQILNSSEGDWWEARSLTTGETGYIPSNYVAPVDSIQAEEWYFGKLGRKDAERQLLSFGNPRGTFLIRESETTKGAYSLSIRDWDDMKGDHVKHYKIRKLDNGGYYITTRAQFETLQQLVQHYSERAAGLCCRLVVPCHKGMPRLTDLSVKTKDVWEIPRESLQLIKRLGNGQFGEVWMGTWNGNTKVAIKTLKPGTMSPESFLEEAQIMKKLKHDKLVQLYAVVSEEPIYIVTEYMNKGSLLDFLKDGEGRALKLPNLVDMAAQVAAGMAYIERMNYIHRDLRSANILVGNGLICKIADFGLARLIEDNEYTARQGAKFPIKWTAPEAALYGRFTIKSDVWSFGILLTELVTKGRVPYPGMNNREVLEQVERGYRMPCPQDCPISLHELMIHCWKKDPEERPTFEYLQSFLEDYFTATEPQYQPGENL
Focal adhesion kinase 1, sequence (Q05397 whole entry): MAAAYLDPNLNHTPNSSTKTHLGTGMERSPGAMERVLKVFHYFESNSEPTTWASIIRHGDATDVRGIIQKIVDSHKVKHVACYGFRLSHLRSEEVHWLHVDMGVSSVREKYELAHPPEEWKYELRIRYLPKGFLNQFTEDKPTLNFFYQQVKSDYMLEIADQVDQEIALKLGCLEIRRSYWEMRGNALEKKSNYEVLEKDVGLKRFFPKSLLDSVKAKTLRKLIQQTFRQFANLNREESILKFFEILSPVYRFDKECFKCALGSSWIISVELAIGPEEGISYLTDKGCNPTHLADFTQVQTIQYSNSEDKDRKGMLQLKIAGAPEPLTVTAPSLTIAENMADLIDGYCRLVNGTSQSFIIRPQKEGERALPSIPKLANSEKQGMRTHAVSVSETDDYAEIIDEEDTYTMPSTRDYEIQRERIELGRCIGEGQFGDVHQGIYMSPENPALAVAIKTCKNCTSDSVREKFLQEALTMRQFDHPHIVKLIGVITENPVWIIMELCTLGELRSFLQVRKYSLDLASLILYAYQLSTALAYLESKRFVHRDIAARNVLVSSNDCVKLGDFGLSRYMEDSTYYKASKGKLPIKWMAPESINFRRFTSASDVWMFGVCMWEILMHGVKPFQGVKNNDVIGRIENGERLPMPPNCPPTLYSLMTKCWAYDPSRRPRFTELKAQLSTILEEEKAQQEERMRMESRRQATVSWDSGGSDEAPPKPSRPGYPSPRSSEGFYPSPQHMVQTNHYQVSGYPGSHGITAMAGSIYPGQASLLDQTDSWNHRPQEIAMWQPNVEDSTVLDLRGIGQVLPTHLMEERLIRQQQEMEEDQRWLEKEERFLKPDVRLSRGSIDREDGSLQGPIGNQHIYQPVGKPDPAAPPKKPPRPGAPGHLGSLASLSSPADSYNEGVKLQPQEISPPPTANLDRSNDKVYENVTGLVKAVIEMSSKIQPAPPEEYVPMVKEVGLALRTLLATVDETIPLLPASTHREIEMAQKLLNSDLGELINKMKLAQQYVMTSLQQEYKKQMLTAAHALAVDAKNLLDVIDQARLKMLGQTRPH

| SMILES | IC50 [1] [nM] | IC50 [2] [µM] | further results |
| --- | --- | --- | --- |
| Cc1cc(C)c(NC(=O)c2cnc(NC(=O)OC(C)(C)C)s2)c(C)c1 | > 30000 | – | – |
| Cc1nc(NC(=O)OC(C)(C)C)sc1C(=O)Nc1ccccc1 | – | > 50 | – |
| Cc1cccc(C)c1NC(=O)c1sc(NC(=O)OC(C)(C)C)nc1C | – | – | IC50 [3]: 7.5 µM; IC50 [4]: 4.4 µM |
| Cc1nc(NC(=O)OC(C)(C)C)sc1C(=O)Nc1ccccc1[N+](=O)[O-] | – | > 50 | – |
| CNC(=O)Nc1nc(C)c(C(=O)Nc2c(C)cc(C)cc2C)s1 | 240 | 0.17 | – |
| Cc1cccc(Cl)c1NC(=O)c1sc(NC(=O)OC(C)(C)C)nc1C | – | – | IC50 [3]: 9.6 µM; IC50 [4]: 28 µM |
| Cc1nc(NC(=O)OC(C)(C)C)sc1C(=O)Nc1c(C(C)C)cccc1C(C)C | – | > 50 | – |
| Cc1nc(NC(=O)OC(C)(C)C)sc1C(=O)Nc1c(Cl)cccc1Cl | – | – | IC50 [5]: 12.5 µM |
| COc1cccc(C)c1NC(=O)c1sc(NC(=O)OC(C)(C)C)nc1C | – | 24.3 | – |
| Cc1nc(NC(=O)OC(C)(C)C)sc1C(=O)Nc1ccc(Cl)cc1Cl | – | > 50 | – |
| Cc1cccc(Cl)c1NC(=O)c1cnc(NC(=O)C2CC2)s1 | 35 | – | IC50 [6]: 10 nM; IC50 [7]: 35 nM; IC50 [8]: > 25 µM; IC50 (Focal adhesion kinase 1): > 25 µM; IC50 [9]: 310 nM; IC50 [10]: > 25 µM; IC50 [11]: 44 nM; IC50 [12]: > 25 µM; IC50 [13]: 71 nM |
| COc1cc(NC(=O)c2sc(NC(=O)OC(C)(C)C)nc2C)cc(C(F)(F)F)c1 | – | > 50 | – |
| Cc1cc(C)c(NC(=O)c2cnc(NC(=O)C3CC3)s2)c(C)c1 | 18 | – | – |
| Cc1cccc(Cl)c1NC(=O)c1cnc(NC(=O)c2ccccc2)s1 | 890 | – | – |
| Cc1cccc(Cl)c1NC(=O)c1sc(NC(=O)c2ccco2)nc1C | 710 | – | – |
| Cc1cccc(C(C)(C)C)c1NC(=O)c1sc(NC(=O)OC(C)(C)C)nc1C | – | > 50 | – |
| Cc1cc(C)c(NC(=O)c2sc(NC(=O)c3ccco3)nc2C)c(C)c1 | 360 | – | – |
| CCCCNC(=O)Nc1nc(C)c(C(=O)Nc2c(C)cc(C)cc2C)s1 | 30 | 0.07 | – |
| Cc1cc(C)c(N(C)C(=O)c2sc(NC(=O)OC(C)(C)C)nc2C)c(C)c1 | – | – | IC50 [14]: Not Active; IC50 [15]: Not Active |

| SMILES | IC50 [1] [nM] | IC50 [2] [µM] | further results |
| --- | --- | --- | --- |
| Cc1cc(C)c(NC(=O)c2sc(NC(=O)OC(C)(C)C)nc2-c2ccccc2)c(C)c1 | > 30000 | – | – |
| Cc1cccc(Cl)c1NC(=O)c1sc(NC(=O)c2ccccc2)nc1C | 4500 | – | – |
| Cc1cccc(Cl)c1NC(=O)c1sc(NC(=O)C2CC2)nc1C | 1400 | – | – |
| CCc1nc(NC(=O)OC(C)(C)C)sc1C(=O)Nc1c(C)cc(C)cc1C | > 30000 | – | – |
| Cc1cccc(C(C)C)c1NC(=O)c1sc(NC(=O)OC(C)(C)C)nc1C | – | 40.3 | – |
| Cc1ccccc1NC(=O)c1sc(NC(=O)OC(C)(C)C)nc1C | – | 45.7 | – |
| Cc1nc(NC(=O)OC(C)(C)C)sc1C(=O)NCC1CCCCC1 | – | > 50 | – |
| Cc1cc(C)c(NC(=O)c2sc(NC(=O)OC(C)(C)C)nc2C(F)(F)F)c(C)c1 | > 30000 | – | – |
| Cc1cc(C)c(NC(=O)c2sc(NC(=O)OC(C)(C)C)nc2C)c(C)c1 | – | – | IC50 [3]: 3 µM; IC50 [4]: 1.5 µM |
| Cc1cc(C)c(NC(=O)c2sc(NC(=O)c3ccccc3)nc2C)c(C)c1 | 800 | 0.32 | – |
| Cc1nc(NC(=O)OC(C)(C)C)sc1C(=O)NC(C)C(C)C (centres undefined) | > 50000 | > 50 | – |
| Cc1cc(NC(=O)c2sc(NC(=O)OC(C)(C)C)nc2C)c(C)[nH]1 | – | > 50 | – |
| Cc1nc(NC(=O)OC(C)(C)C)sc1C(=O)NCC(C)(C)C | – | > 50 | – |
| CCCCNC(=O)Nc1nc(C)c(C(=O)Nc2c(C)cccc2Cl)s1 | 620 | – | – |
| Cc1nc(NC(=O)OC(C)(C)C)sc1C(=O)N1CCN(C=O)CC1 | – | > 50 | – |
| Cc1cc(C)c(NC(=O)c2sc(N(C)C(=O)OC(C)(C)C)nc2C)c(C)c1 | – | – | IC50 [14]: Not Active; IC50 [15]: Not Active |
| Cc1cc(Br)cc(C)c1NC(=O)c1sc(NC(=O)OC(C)(C)C)nc1C | – | – | IC50 [3]: 2.4 µM; IC50 [4]: 1.4 µM |
| COC(=O)Nc1nc(C)c(C(=O)Nc2c(C)cc(C)cc2C)s1 | 700 | 0.72 | – |
| Cc1cc(C)c(NC(=O)c2sc(N)nc2C)c(C)c1 | – | – | IC50 [3]: 6.6 µM; IC50 [4]: 5 µM |
